Reference: patent US8470968B2, “SPARC-derived tumor rejection antigenic peptides and medicaments comprising the same” (Onco Therapy Science, Inc., priority 2006, dated 2013)
Ends that are not written are not given here.

What was measured:
Format in all cases: cell-based, mouse
[1] = test system: T2K^d cells loaded with SPARC K^d peptide; experiment: Cr-release assay of peptide-induced killer T cells on peptide-loaded T2K^d cells; conditions: T2K^d cells loaded with the SPARC K^d peptide; 4 hours co-culture; CTL from BM-DC-immunized BALB/c mice
Experimental: (§1) Bone marrow-derived dendritic cells (BM-DC) were induced from bone marrow cells derived from BALBc bone marrow by using GM-CSF as described previously by us (Nakatsura, T et al., Clin Cancer Res 10, 8630-8640, 2004). Thus the obtained BM-DC were cultured with a mixture of the 4 types of peptides selected as described above at a concentration of 10 μM for 2 hours, and the peptide-pulsed BM-DC (5×10^5 cells) were then intraperitoneally administered to each mouse. After an interval of 1 week, the same peptide-pulsed BM-DC were administered to the mouse twice, so that the mouse was strongly immunized. Thereafter, the spleen cells of the mouse were recovered and induction of killer T cells was evaluated. In order to strictly analyze induction of killer T cells derived from CD8^+ T cells, after collection of the spleen, CD4^+ T cells were eliminated from the collected spleen cells, using MACS beads, and the remaining cells were then used for analysis.
(§2) The following protocols were used for generation and characterization of SPARC-specific killer T cells (The day of recovering the spleen cells from the immunized mouse was defined as Day 0.) • Day-21 (1) GM-CSF was added to the bone marrow cells of a BALB/c mouse, so as to start induction of bone marrow-derived dendritic cells (hereinafter referred to as BM-DC). • Day-14 (2) A mixture of the 4 types of SPARC peptides was added to the induced BM-DC, and 2 hours later, 5×10^5 cells were intraperitoneally administered to each mouse. • Steps (1) and (2) were repeated twice every other week. • Day 0 The spleen cells of the immunized BALB/c mouse were recovered. The cells were co-cultured with BM-DC prepulsed with each SPARC peptide for 2 hours. […]
(§3) The cytotoxic activity of the induced SPARC-specific killer T cells on tumor cells was analyzed as follows. […] Thereafter, a culture supernatant was recovered, and the amount of radioactive Cr released from dead cells was quantified, so that cytotoxic activity was detected.

Meth A cell line = experiment: Cr-release assay of peptide-induced killer T cells on Meth A cells; conditions: spontaneously expressing SPARC, 4 hours co-culture
Experimental: as §1, §2, §3

BALB/3T3 cell line = experiment: Cr-release assay of peptide-induced killer T cells on BALB/3T3 cells; conditions: BALB/3T3, spontaneously expressing SPARC; 4 hours co-culture
Experimental: as §1, §2, §3

Measured: Cytotoxicity of induced killer T cells (Cr release)

MYIFPVHWQF [SPARC- K^d-4, MYIFPVHWQF]
cytotoxicity was observed: all assays above

EFPLRMRDWL [SPARC- K^d-3, EFPLRMRDWL]
cytotoxicity was observed: all assays above

DYIGPCKYI [SPARC- K^d-1, DYIGPCKYI]
cytotoxicity was observed: all assays above
